{
  "source": "paper PMC12661054",
  "about": "“The CIP2A-TOPBP1 axis facilitates mitotic DNA repair via MiDAS and MMEJ” (Nature Communications, 2025)",
  "key": {"[1]": {"tested_on": "DLD1 BRCA2-/- cells", "experiment": "Proliferation (Incucyte), DLD1 BRCA2-/- cells", "type": "cell-based, human", "details": "5 µM ART558 + siSLX4, compared to siCIP2A; three independent experiments", "experimental": "For proliferation analysis of DLD1 BRCA2^-/- cells after treatment with siRNA as indicated, 72 h post-transfection of the first pulse of siRNA, 1500 cells were seeded per well in a PhenoPlate 96-well optically clear tissue culture plate (Revvity, 6055302). […] The following day the media was aspirated and replaced with 200 µl of RPMI 1640 medium containing standard antibiotics, 10% FBS and 2 mM L-glutatmine.\nTo analyse cellular proliferation of DLD1 BRCA2^-/- or SUM149PT BRCA1^-/-cells expressing a minimal SLX4 T1260 containing fragment, 1500 cells were seeded per well in a PhenoPlate 96-well optically clear tissue culture plate (Revvity, 6055302). […] The following day the medium was aspirated and replaced with 200 µl of RPMI 1640 medium containing standard antibiotics, 10% FBS and 2 mM L-glutatmine (DLD1 BRCA2^-/- SLX4 T1260 fragment cells or empty vector control expressing) or S Ham’s F-12 medium supplemented with 5% FBS, 10 μg/mL insulin, 0.5 μg/mL hydrocortisone and penicillin/streptomycin antibiotics for SUM149PT BRCA1^-/- (SLX4 T1260 fragment or empty vector control expressing) containing 1 µg/ml doxycycline."}, "[2]": {"tested_on": "RPE1 p53-/- FRT/TR cells", "experiment": "Micronuclei formation, RPE1 p53-/- FRT/TR cells", "type": "cell-based, human", "details": "5 µM ART558, 18 h, with 400 nM aphidicolin, three independent experiments", "experimental": "(§1) For detection of EdU incorporation in mitosis and the analysis of recruitment of TOPBP1, CIP2A, MUS81, ERCC1, TOPBP1-mAID-Clover, eGFP tagged SLX4 and eGFP tagged Polθ in RPE1 p53^-/- FRT/TR and DLD1 BRCA2^-/-cells, respectively, cells were grown on 13 mm 1.5 thickness coverslips and treated as described. Subsequently cells were simultaneously fixed and permeabilised in PTEMF buffer (20 mM PIPES pH 6.8, 10 mM EGTA, 0.2% Triton X-100, 1 mM MgCl2 and 4% formaldehyde) for 10 minutes at room temperature. For detection of micronuclei, cells were fixed in 250 mM HEPES pH 7.5, 0.1% Triton X-100, 4% PFA in PBS for 20 minutes at 4 °C.\nCoverslips were then incubated for 5 min in 1x PBS with three buffer changes followed by incubation with 0.5% Triton X-100/ PBS for 10 min at room temperature. Coverslips were then incubated for 5 minutes in 1x PBS with three buffer changes. […]\n(§2) Quantification was carried out using FIJI (ImageJ, RRID:SCR_003070) software, CellProfiler (Broad Institute), Harmony (Revvity) or using Aivia (Leica Microsystems). Images of mitotic cells were analysed in 3D with maximum Z projections used for representative images in the manuscript to assist with visualisation.For interphase cells 2D images were analysed."}, "[3]": {"tested_on": "TOPBP1 BRCT 7-8", "experiment": "Fluorescence polarisation, TOPBP1 BRCT 7-8", "type": "binding, human", "details": "peptide 100 nM, pH 7.5", "experimental": "(§3) In vitro fluorescence polarisation\n(§4) Fluorescein-labelled peptides corresponding to amino acids 1253-1267 or 1470-1483 of SLX4 incorporating pT1260 or pT1476 respectively, were incubated at a concentration of 100 nM at room temperature with increasing concentrations of TOPBP1 WT or mutant BRCT module variants[26] in 25 mM HEPES pH 7.5, 150 mM NaCl, 1 mM EDTA, 0.25 mM TCEP, 0.002% (v/v) Tween 20 in a black 96-well polypropylene plate. Additional experiments performed with dephosphorylated peptide were achieved though incubation with Lambda phosphatase supplemented with 1 mM MnCl2 to remove the phosphorylation on the peptide. Fluorescence polarisation was measured in a CLARIOstar multimode microplate reader. Binding curves were calculated assuming a single binding site with non-specific binding component, using Graphpad Prism10.2.3 (GraphPad Prism, RRID: SCR_002798). Binding affinities are presented as calculated values alongside the 95% CI values. The presented graphs represent data plotted with the non-specific binding component subtracted."}, "[4]": {"tested_on": "TOPBP1 BRCT 4-5", "experiment": "Fluorescence polarisation, TOPBP1 BRCT 4-5", "type": "binding, human", "details": "peptide 100 nM, pH 7.5", "experimental": "as §3, §4"}, "[5]": {"target": "T1, TOPBP1 BRCT 0-1-2 WT (Homo sapiens, UniProt Q92547)", "T1 construct": "transformed with pGEX-6P-1 TOPBP1(BRCT0-2 1-290) WT and K155E, K250E and K155E/K250E mutant variants; GST (N); made in house; host or cells: E. coli BL21(DE3)", "T1 sequence (Q92547 1-290)": "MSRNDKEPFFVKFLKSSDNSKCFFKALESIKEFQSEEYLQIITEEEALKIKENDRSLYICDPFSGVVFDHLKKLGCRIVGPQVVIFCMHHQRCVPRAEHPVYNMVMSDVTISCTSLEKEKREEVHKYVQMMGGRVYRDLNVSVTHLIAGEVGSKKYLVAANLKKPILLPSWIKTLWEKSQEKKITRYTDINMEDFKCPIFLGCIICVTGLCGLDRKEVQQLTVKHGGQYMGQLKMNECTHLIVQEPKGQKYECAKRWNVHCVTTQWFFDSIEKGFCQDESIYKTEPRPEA", "experiment": "Fluorescence polarisation, TOPBP1 BRCT0-1-2 WT", "type": "binding", "details": "GST-tagged TOPBP1 fragment, peptide 100 nM, pH 7.5", "experimental": "E.coli BL21(DE3) cells were transformed with pGEX-6P-1 TOPBP1(BRCT0-2 1-290) WT and K155E, K250E and K155E/K250E mutant variants for protein expression. Cell pellets were resuspended in lysis buffer containing 25 mM HEPES pH 7.5, 200 mM NaCl and 0.5 mM TCEP supplemented with 50U Turbo DNase, disrupted by sonication, and the resulting lysate clarified by centrifugation at 36,000 x g for 60 min at 4 °C. The supernatant was applied to a 5 ml HiTrap GST column, then washed with buffer containing 50 mM HEPES pH 7.5, 1000 mM NaCl, 0.25 mM TCEP, before the retained protein was eluted by application of the lysis buffer supplemented with 20 mM glutathione. […]\nas §3\nFluorescein-labelled peptides corresponding to amino acids 1253-1267 or 1470-1483 of SLX4 incorporating pT1260 or pT1476 respectively, were incubated at a concentration of 100 nM at room temperature with increasing concentrations of TOPBP1 WT or mutant BRCT module variants[26] in 25 mM HEPES pH 7.5, 150 mM NaCl, 1 mM EDTA, 0.25 mM TCEP, 0.002% (v/v) Tween 20 in a black 96-well polypropylene plate. […] Fluorescence polarisation was measured in a CLARIOstar multimode microplate reader. Binding curves were calculated assuming a single binding site with non-specific binding component, using Graphpad Prism10.2.3 (GraphPad Prism, RRID: SCR_002798). […]"}, "[6]": {"tested_on": "RPE1 p53-/- cells", "experiment": "Immunofluorescence foci, RPE1 p53-/- cells", "type": "cell-based, human", "experimental": "Immunofluorescence microscopy […] For detection of micronuclei, cells were fixed in 250 mM HEPES pH 7.5, 0.1% Triton X-100, 4% PFA in PBS for 20 minutes at 4 °C. Coverslips were then incubated for 5 min in 1x PBS with three buffer changes followed by incubation with 0.5% Triton X-100/ PBS for 10 min at room temperature. Coverslips were then incubated for 5 minutes in 1x PBS with three buffer changes. For EdU detection coverslips were transferred to a humidified chamber and incubated in EdU click it reaction buffer containing Alexafluor 488 azide for 1 h at room temperature followed by three 5 min washes in 1x PBS. Coverslips were then incubated in 5% FBS/PBS for 1 h followed by overnight incubation at 4 °C with primary antibody diluted in 5% FBS/PBS. Coverslips were then washed 3 × 5 min in 1x PBS followed by 1 h incubation at room temperature in 5% FBS/PBS containing secondary antibodies. Coverslips were incubated a further three times for 5 min in 1x PBS. Coverslips were then mounted on superfrost microscopy slides using Vectashield mounting medium with DAPI (Vector laboratories, […]). […] Cells were fixed in […] for 15 min at room temperature, followed by 3 × 5 min washes in 1xPBS. Coverslips were then incubated in 0.5% Triton-X/PBS for 10 min at room temperature, followed by a further 3 × 5 min 1xPBS washes. Coverslips were then incubated in blocking buffer (2% BSA, 0.05% Tween-20) for 1 h at room temperature, followed by incubation in respective primary antibodies overnight at 4 °C. Coverslips were then washed 3x for 5 min in 1x PBS followed by incubation for 1 h at room temperature in blocking buffer containing secondary antibodies. Coverslips were then washed 3x for 5 min in 1x PBS and mounted with Vectashield PLUS antifade mounting medium with DAPI (Vector laboratories, […]). Images were acquired using a Zeiss Axio Observer Z1 MarianasTM Microscope attached with a CSU-SoRa spinning disk unit using either a Photometrics Kinetix sCMOS camera built by Intelligent Imaging Innovations (3i) or a Zeiss Axio Observer Z1 MarianasTM Microscope attached with a CSUX1 spinning disk unit and Hamamatsu Flash 4 CMOS camera built by Intelligent Imaging Innovations (3i) or using an Opera Phenix Plus high content imaging system (Revvity). In each case 405, 488 and 640 laser lines were used in addition to DAPI, GFP/FITC, iRFP/CY5 emission filters. Quantification was carried out using FIJI (ImageJ, RRID:SCR_003070) software, CellProfiler (Broad Institute), Harmony (Revvity) or using […] Microsystems). Images of mitotic cells were analysed in 3D with maximum Z projections used for representative images in the manuscript to assist with visualisation.For interphase cells 2D images were analysed."}, "[7]": {"tested_on": "HCT116-TOPBP1-mAID-Clover cells", "experiment": "TOPBP1 degron assay, HCT116-TOPBP1-mAID-Clover cells", "type": "cell-based, human", "experimental": "Immunofluorescence microscopy\nas §1, §2"}},
  "data": [
    {"compound": "Cc1cccc(N(C)C(=O)[C@@H]2[C@H](O)CCN2c2nc(C)cc(C(F)(F)F)c2C#N)c1", "note": "[Polθi]", "values": [
      {"measurement": "proliferation, DLD1 BRCA2-/- cells depleted of SLX4", "setting": "[1]", "value": "broadly similar loss of proliferative capacity compared to the single depletion of CIP2A alone"},
      {"measurement": "micronuclei formation, WT cells", "setting": "[2]", "value": "increase in micronuclei formation"}
    ]},
    {"compound": "‘Flu’-GYGSPGLLDT(pT)PIRGSCT [SLX4 pT1476, Fluorescein-labelled peptide corresponding to amino acids 1470-1483 of SLX4 incorporating pT1476]", "values": [
      {"measurement": "interaction with TOPBP1 BRCTs 7-8", "setting": "[3]", "value": "no interaction was detected"},
      {"measurement": "interaction with TOPBP1 BRCTs 4-5", "setting": "[4]", "value": "no interaction was detected"},
      {"measurement": "interaction with TOPBP1 BRCTs 0-1-2", "setting": "[5]", "value": "did not bind"}
    ]},
    {"compound": "C[C@@]1(CO)[C@H](O)CC[C@@]2(C)[C@H]1CC[C@H]1C[C@@H]3C[C@@]12CC[C@]3(O)CO", "note": "[aphidicolin]", "values": [
      {"measurement": "CIP2A–γH2AX colocalising foci in mitosis", "setting": "[6]; 400 nM aphidicolin 18 h, nocodazole 60 ng/ml 2 h, RPE1 p53-/- FRT/TR WT, three experiments", "value": "striking increase in CIP2A–γH2AX colocalising foci in mitosis"},
      {"measurement": "RAD9 TOPBP1 colocalising foci", "setting": "[6]; 400 nM aphidicolin 18 h, nocodazole 60 ng/ml 2 h, RPE1 p53-/- FRT/TR, two experiments (peer review file Fig. R1B)", "value": "increase in response to aphidicolin treatment"},
      {"measurement": "WT SLX4 recruitment to prometaphase chromatin, colocalised with CIP2A", "setting": "[6]; 400 nM aphidicolin 18 h, nocodazole 60 ng/ml 2 h, RPE1 p53-/- SLX4-/- + eGFP-SLX4 WT, three independent experiments", "value": "recruited to prometaphase chromatin in response to replicative stress induced by aphidicolin and colocalised with CIP2A"},
      {"measurement": "colocalisation between CIP2A and FANCD2 foci on mitotic chromatin", "setting": "[6]; 400 nM aphidicolin 18 h, nocodazole 60 ng/ml 2 h, RPE1 p53-/- WT, three experiments", "value": "detected colocalisation between CIP2A and FANCD2 foci on mitotic chromatin"},
      {"measurement": "TOPBP1, SLX4, and MUS81 foci during interphase", "setting": "[6]; RPE1 cells treated with aphidicolin", "value": "elevated formation of TOPBP1, SLX4, and MUS81 foci during interphase"},
      {"measurement": "mitotic colocalisation of SLX4, MUS81 or ERCC1 with TOPBP1 in prometaphase", "setting": "[6]; RPE1 cells, aphidicolin", "value": "elevated mitotic colocalisation of SLX4, MUS81 or ERCC1 with TOPBP1 in prometaphase"},
      {"measurement": "colocalisation between γH2AX and MUS81", "setting": "[6]; RPE1 p53-/- cells treated with aphidicolin", "value": "The same observation was made for colocalisation between γH2AX and MUS81"},
      {"measurement": "colocalising γH2AX and SLX4 foci", "setting": "[6]; aphidicolin treated RPE1 p53-/- cells", "value": "significant increase in colocalising γH2AX and SLX4 foci"},
      {"measurement": "MDC1 foci formation in mitosis", "setting": "[6]; aphidicolin-treated RPE1 cells compared to control", "value": "elevated MDC1 foci formation in mitosis"}
    ]},
    {"compound": "O=C(O)Cc1c[nH]c2ccccc12", "note": "[IAA, Indole-3-acetic acid]", "values": [
      {"measurement": "MUS81 foci formation in prometaphase after acute TOPBP1 degradation", "setting": "[7]; 500 µM IAA, 2 h, 40 ng/ml nocodazole, three independent experiments", "value": "near total abolishment of MUS81 foci formation in prometaphase"},
      {"measurement": "anaphase abnormalities after acute TOPBP1 degradation", "setting": "[7]; IAA-induced degradation of TOPBP1 in G2/M, release into mitosis", "value": "marked increase in anaphase abnormalities"}
    ]}
  ]
}
